# Key:
# [1] = tested on: HL-60 cells; test: OKM1 reactivity (immunofluorescence); assay type: cell-based, human; details: TPA 3 nM, RA 1 μM or Vit D3 400 nM, percent OKM1 positive cells
# Method: (§1) HL-60 cells were originally provided by Dr. R. C. Gallo (National Cancer Institute, Bethesda, Md.) (Collins et al., 1978; Huberman & Callaham, 1979). HL-60 cells designated HL-525 were derived by cloning HL-60 cells after subculturing 102 times in the presence of increasing concentrations (up to 3 μM) of TPA at 5- to 8-day intervals (Homma et al., 1986; Mitchell et al., 1986). […] Prior to the experiments described in this study, the HL-525 cells were subcultured more than 20 times in the absence of TPA. Cells were grown in 100-mm tissue culture dishes in RPMI 1640 medium supplemented with 20% fetal bovine serum, penicillin (100 units/ml) and streptomycin (100 μg/ml) (Grand Island Biological Co., NY) at 37° C. in an atmosphere of 5% CO2 in air in a humidified incubator. The 1,25-(OH)2D3(Vit D3) and TPA were dissolved in a final concentration of 0.01% DMSO, and all-trans retinoic acid (RA) was dissolved in 0.1% DMSO in culture medium. […] Control cultures were treated with DMSO at a final concentration of 0.1% in culture medium. For experiments designed to test the effect of DMSO on HL-60 and HL-525 cells, DMSO was added to tissue culture medium at a final concentration of 1%. Stock solutions of CHX (10 mg/ml) were prepared in culture medium. CHX was added at a final concentration of 10 μg/ml. To examine a requirement for protein synthesis on mda-6 gene expression, HL-60 or HL-525 cells were seeded into 150 mm Petri dishes (5×10^5 cells/ml) in 30 ml of medium. CHX was added to a final concentration of 10 μg/ml 15 min prior to the addition of TPA to 3 nM. Cells were harvested at various times after addition of TPA for subsequent RNA isolation and analysis.
# (§2) Cell counts were determined by hemocytometer chamber counting. Immunofluorescence tests for reactivity with the OKM1 antibody (Ortho Pharmaceutical Corp., Raritan, N.J.) were performed as previously described (Murao et al., 1983).
# [2] = tested on: HL-525 cells; test: OKM1 reactivity (immunofluorescence); assay type: cell-based, human; details: TPA 3 nM, RA 1 μM or Vit D3 400 nM, percent OKM1 positive cells
# Method: as §1, §2
# [3] = tested on: H0-1 human melanoma cell line; test: 96-h growth suppression (cell number by Coulter Counter); assay type: cell-based; details: for Growth Suppression (reversible): H0-1 cells, degree of initial 96 hr growth suppression versus untreated control
# Method: FIG. 1A-B Effect of continuous exposure to various growth and differentiation modulating agents on the 96-h growth of the human melanoma cell line, H0-1. Cells were seeded at 5×10^4/35-mm tissue culture plate and 24 h later the medium was changed with the indicated compounds. Cell numbers were determined by Coulter Counter after 96-h growth. Further details can be found in Materials and Methods.
# The H0-1 cell line is a melanotic melanoma derived from a person and was used between passage 100 and 125 (6,8,13). H0-1 cells were kindly provided by Dr. Beppino C. Giovanella, Stehlin Foundation for Cancer Research, Houston, Tex. Cultures were grown at 37° C. in a 95% air 5% CO2-humidified incubator in Dulbecco's modified Eagle's medium (DMEM) supplemented with 10% fetal bovine serum (DMEM-10) (Hyclone, Logan, Utah). H0-1 cells were maintained in the logarithmic stage of growth by subculturing (1:5 or 1:10) prior to confluency approximately every 4 to 5 days. […] Total cell numbers were determined after days 4, 7, 14, and 21, using a ZM Coulter Counter, and viable cell numbers were determined by trypan blue dye exclusion (6). […] Increases in cell number (two or more population doublings) after removal of the inducing agent(s) was considered reversible growth suppression. […] Conditioned medium was collected from treated cultures, contaminating cells were removed by centrifugation at 1000 rpm/10 min., and conditioned medium was stored at 4° C. until assayed for gene modulatory activity. Control conditioned medium was obtained as experimental conditioned medium from cells receiving only a medium change 24 hours after plating in the absence of test compound(s) and growth for 72 hours in DMEM-10.
# [4] = tested on: mda-5; test: mda-5 expression (Northern blotting); assay type: cell-based, human; details: H0-1
# Method: (§3) The mass excision of the library was performed using ExAssist helper phage as described above. The SOLR strain of Escherichia coli and cDNA phagemids were mixed at 37° C. for 15 min and plated onto LB plates containing ampicillin and IPTG/X-gal. White colonies were chosen at random, isolated and grown in LB medium. Plasmid minireps and restriction enzyme digestions were performed to confirm the presence of inserts. The inserts were isolated and used as robes for Northern blotting analysis (5,25). […] Radiolabeled probes were generated by random oligonucleotide priming (25). Prehybridization, hybridization, posthybridization washes, and autoradiography were performed as described (5,18,25).
# [5] = tested on: mda-4; test: mda-4 expression (Northern blotting); assay type: cell-based, human; details: H0-1
# Method: as §3
# [6] = tested on: mda-8; test: mda-8 expression (Northern blotting); assay type: cell-based, human; details: H0-1
# Method: as §3
# [7] = 96 hours, doses of FIG. 15 legend
# [8] = 24 hours, doses of FIG. 19, phenyl butyrate 24 hours, 4 days or 7 days
Compound,"OKM1 reactivity, Days of induction 2 [1] [%]","OKM1 reactivity, Days of induction 4 [1] [%]","OKM1 reactivity, Days of induction 6 [1] [%]","OKM1 reactivity, Days of induction 4 [2] [%]","OKM1 reactivity, Days of induction 6 [2] [%]","inhibition of H0-1 growth ([3]; H0-1, 96 hours, FIG. 1 concentrations)",Growth Suppression (reversible) ([3]; Table 1),Growth Suppression (reversible) ([3]; Table 2),"mda-5 expression [4, 7]","mda-4 expression [5, 8]","mda-8 expression [6, 7]","mda-5 expression [4, 8]","mda-4 expression [5, 7]","mda-8 expression [6, 8]"
"CCCCCCCCCCCCCC(=O)O[C@@H]1[C@@H](C)[C@@]2(O)[C@@H](C=C(CO)C[C@]3(O)C(=O)C(C)=C[C@@H]23)[C@@H]2C(C)(C)[C@]12OC(C)=O [TPA, 12-O-tetradecanoyl-phorbol-13-acetate]",55,81,95,8,4,–,–,–,–,–,–,–,–,–
"CC1=C(/C=C/C(C)=C/C=C/C(C)=C/C(=O)O)C(C)(C)CCC1 [RA, trans-retinoic acid]",49,76,77,10,13,no inhibition of growth,− (− = no significant change in growth (<10% reduction in growth in comparison with untreated control cultures)),− (− = no significant change in growth (<10% reduction in growth in comparison with untreated control cultures)),No change in expression,No or only a small change in expression,No change in expression,–,–,–
"C=C(C)[C@@]12O[C@@]3(c4ccccc4)O[C@@H]1[C@@H]1[C@@H]4O[C@]4(CO)[C@@H](O)[C@]4(O)C(=O)C(C)=C[C@H]4[C@@]1(O3)[C@H](C)[C@H]2OC(=O)/C=C/C=C/c1ccccc1 [MEZ, mezerein]",–,–,–,–,–,–,1+ (1+ = ~30% reduction in growth in comparison with untreated control cultures),1+ (1+ = ~30% reduction in growth in comparison with untreated control cultures),No change in expression,–,No change in expression,No change in expression,No or only a small change in expression,No change in expression
